Reference: PMC11693508, “Pharmacokinetics, bioavailability, and tissue distribution of MRTX1133 in rats using UHPLC-MS/MS” (Frontiers in Pharmacology, 2024)
Like-named read-outs stand apart in the source and are kept apart here.

What was measured:
[1] = Pharmacokinetic study in rats after intragastric and intravenous administration (plasma, UHPLC-MS/MS); format: in vivo, Sprague-Dawley rats; conditions: for Tmax: po, 25 mg/kg; for AUC(0-t): n = 10; for MRT last: read-out: MRT(0-t)
Method: The pharmacokinetic study was performed using oral solutions of MRTX1133 in 5% carboxymethyl-cellulose sodium (CMC-Na) at a concentration of 2.5 mg mL^-1 (the dose was 25 mg kg^-1 and 10 mL kg^-1). The intravenous solution was prepared at a concentration of 5 mg mL^-1 in polyethylene glycol 400 and dimethyl sulfoxide (8%). Twenty rats were randomly divided into two groups (ten rats each group), the rats in one group were given MRTX1133 by intravenous administration at 5 mg kg^-1 and the other group by intragastric administration at 25 mg kg^-1. Rats were slightly anesthetized with diethyl ether, blood samples were collected (approximately 150 µL) from the suborbital vein, and placed into heparinized tubes at 0.17 h, 0.33 h, 0.5h, 0.75 h, 1 h, 1.5 h, 2 h, 3 h, 4 h, 6 h, 8 h, 10 h, and 24 h after treatment. The rats were treated with saline at the same volume by gavage and used as control. Blood samples were centrifuged at 20,800 g for 10 min (at 4°C) and stored at - 80°C.
The DAS 3.2 software package (edited by the Chinese Mathematical Pharmacology Society) was used for the pharmacokinetic data analysis and the non-compartmental model was applied. The oral bioavailability (F) of MRTX1133 was measured by comparing each area under the curve (AUC) 0-t value after intragastric (i.g.) and intravenous (i.v.) administration according to the equation: F = (AUC i. g./Dose i. g.)/(AUC i. v./Dose i. v.).

[2] = Excretion in urine and feces of rats after intravenous administration; format: in vivo, Sprague-Dawley rats; conditions: rat, intravenous 5 mg/kg; for excretion through the kidney as prototype drug (urine): mean ± SD, n = 5
Method: (§1) The distribution of MRTX1133 in the tissues was performed using 25 rats with a single intravenous administration of MRTX1133 at 5 mg kg^-1. The blood samples were collected from abdominal aorta at 0.5 h, 1 h, 2 h, 6 h, and 24 h (five rats at each time point), then the organs such as the heart, liver, spleen, lung, kidney, intestine, and pancreas were immediately collected. The organs were washed with cold physiological saline (4°C), they were weighed and homogenized in cold saline solution (1:3, w/v). The homogenized samples were treated according to the method described in the sample preparation section. The excretion of MRTX1133 in the urine was also investigated by placing the rats in metabolic cages after intravenous administration of MRTX1133 at 5 mg kg^-1 (one rat in each cage), the urine and feces were collected at 2 h, 6 h and 24 h after administration (five rats at each time point), and the content of MRTX1133 in urine and feces was detected by the LC-MS method.

[3] = Stability of MRTX1133 in rat plasma and tissue homogenates under different storage conditions; format: physicochemical; conditions: for Post-processing stability Accuracy / Short-term stability Accuracy / −80°C for 14 days Accuracy / Freeze-thaw stability Accuracy: n = 6; for −80°C for 14 days Accuracy: long-term; for Freeze-thaw stability Accuracy: three freeze-thaw cycles −20°C to 25°C
Method: The stability of MRTX1133 was determined by analyzing LQ, MQ, and HQ samples under different storage conditions, which included three freeze-thaw stability (from −20°C to 25°C), long-term stability (−80°C for 14 days), short-term stability (25°C for 6 h), and post-processing stability (4°C for 24 h). The samples concentrations were compared with the freshly prepared QC samples and were considered stable if the accuracy were 85%–115% and RSD were ±15%.

[4] = set-up: method as in Wang et al. (2022); conditions: CD-1 mice, intraperitoneal 30 mg/kg, ref Wang et al. (2022), cited from earlier work
[5] = Tissue distribution in rats after single intravenous administration; format: in vivo, Sprague-Dawley rats; conditions: rat, intravenous 5 mg/kg; for concentration at 2 h: after 2 h; for concentration at 6 h: after 6 h
Method: as §1

KRAS (G12D) = tested on: KRAS (G12D); set-up: method as in Wang et al., 2022; conditions: in vitro in cell culture; ref Wang et al., 2022; cited from earlier work
[6] = Sprague-Dawley, rat plasma, intravenous 5 mg/kg
[7] = Sprague-Dawley, rat plasma, oral 25 mg/kg
[8] = rat intestine homogenate, 4.22 ng/mL
[9] = rat intestine homogenate, 21.12 ng/mL
[10] = rat kidney homogenate, 21.12 ng/mL
[11] = rat kidney homogenate, 211.20 ng/mL
[12] = rat kidney homogenate, 1,056.00 ng/mL
[13] = rat liver homogenate, 21.12 ng/mL
[14] = rat liver homogenate, 211.20 ng/mL
[15] = rat liver homogenate, 2,112.00 ng/mL

- bioavailability ([1]; Sprague-Dawley, plasma, oral, rat, AUC(0-t) i.g. 25 mg/kg vs i.v. 5 mg/kg, read-out: F (oral bioavailability)): 2.92%
- CL/F ([1]; Sprague-Dawley, plasma, rat, oral 25 mg/kg, read-out: CL/F (converted)): 199 L/h/kg
- Tmax ([1]; Sprague-Dawley, rat, plasma, rat plasma, oral 25 mg/kg, read-out: Tmax): 0.6 ± 0.13 h
- Tmax ([1]; Sprague-Dawley, rat, plasma, rat plasma, oral 25 mg/kg, read-out: time of peak plasma concentration (converted)): 0.75 h
- half-life [1, 6]: 2.88 ± 1.08 h
- AUC(0-t) [1, 6]: 928 ± 192 ng·h/mL
- MRT last [1, 6]: 1.34 ± 0.6 h
- Cmax [1, 7]: 130 ± 25.2 ng/mL
- half-life [1, 7]: 1.12 ± 0.46 h
- MRT last [1, 7]: 1.25 ± 0.18 h
- AUC(0-t) ([1]; Sprague-Dawley, rat plasma, oral (intragastric) 25 mg/kg): 136 ± 46.5 ng·h/mL
- plasma concentration 8 h after intravenous administration ([1]; rat plasma, intravenous 5 mg/kg, 8 h): bleow the limit of quantitation
- plasma concentration 6 h after oral administration ([1]; rat plasma, oral 25 mg/kg, 6 h): bleow the limit of quantitation
- CL/F ([1]; rat, intravenous 5 mg/kg): 5.14 ± 1.58 L/h/kg
- V/F ([1]; rat, intravenous 5 mg/kg): 22.83 ± 11.67 L/kg
- V/F ([1]; rat, oral 25 mg/kg): 318.99 ± 157.43 L/kg
- excretion through the kidney as prototype drug (urine) ([2]; 6 h): 10.43% ± 2.89%
- excretion through the kidney as prototype drug (urine), range ([2]; 6 h): 6.53%–13.54%
- excretion through the kidney as prototype drug (urine) ([2]; 24 h, 5 mg/kg): 22.59% ± 3.22%
- excretion through the kidney as prototype drug (urine), range ([2]; 24 h): 17.60%–25.92%
- MRTX1133 in feces ([2]; feces 24 h): no MRTX1133 was found
- stability in plasma samples and homogenates ([3]; 25°C for 6 h, 4°C for 24 h, three freeze-thaw cycles (−20°C to 25°C), −80°C for 14 days): stable
- Post-processing stability Accuracy ([3]; rat intestine homogenate, 4.22 ng/mL, 4°C for 24 h): 98.23%
- Short-term stability Accuracy ([3]; rat intestine homogenate, 4.22 ng/mL, 25°C for 6 h): 95.41%
- −80°C for 14 days Accuracy [3, 8]: 93.31%
- Freeze-thaw stability Accuracy [3, 8]: 95.83%
- Post-processing stability Accuracy ([3]; rat intestine homogenate, 21.12 ng/mL, 4°C for 24 h): 98.14%
- Short-term stability Accuracy ([3]; rat intestine homogenate, 21.12 ng/mL, 25°C for 6 h): 96.69%
- −80°C for 14 days Accuracy [3, 9]: 92.54%
- Freeze-thaw stability Accuracy [3, 9]: 94.42%
- Short-term stability Accuracy ([3]; rat intestine homogenate, 105.60 ng/mL, 25°C for 6 h): 94.97%
- −80°C for 14 days Accuracy ([3]; rat intestine homogenate, 105.60 ng/mL): 90.35%
- Post-processing stability Accuracy ([3]; rat kidney homogenate, 21.12 ng/mL, 4°C for 24 h): 101.18%
- Short-term stability Accuracy ([3]; rat kidney homogenate, 21.12 ng/mL, 25°C for 6 h): 103.01%
- −80°C for 14 days Accuracy [3, 10]: 95.23%
- Freeze-thaw stability Accuracy [3, 10]: 95.07%
- Post-processing stability Accuracy ([3]; rat kidney homogenate, 211.20 ng/mL, 4°C for 24 h): 98.13%
- Short-term stability Accuracy ([3]; rat kidney homogenate, 211.20 ng/mL, 25°C for 6 h): 97.29%
- −80°C for 14 days Accuracy [3, 11]: 92.7%
- Freeze-thaw stability Accuracy [3, 11]: 95.58%
- Post-processing stability Accuracy ([3]; rat kidney homogenate, 1,056.00 ng/mL, 4°C for 24 h): 95.47%
- Short-term stability Accuracy ([3]; rat kidney homogenate, 1,056.00 ng/mL, 25°C for 6 h): 97.04%
- −80°C for 14 days Accuracy [3, 12]: 91.34%
- Freeze-thaw stability Accuracy [3, 12]: 93.72%
- Post-processing stability Accuracy ([3]; rat liver homogenate, 21.12 ng/mL, 4°C for 24 h): 104.23%
- Short-term stability Accuracy ([3]; rat liver homogenate, 21.12 ng/mL, 25°C for 6 h): 101.44%
- −80°C for 14 days Accuracy [3, 13]: 96.4%
- Freeze-thaw stability Accuracy [3, 13]: 97.72%
- Post-processing stability Accuracy ([3]; rat liver homogenate, 211.20 ng/mL, 4°C for 24 h): 105.35%
- Short-term stability Accuracy ([3]; rat liver homogenate, 211.20 ng/mL, 25°C for 6 h): 105.89%
- −80°C for 14 days Accuracy [3, 14]: 94.88%
- Freeze-thaw stability Accuracy [3, 14]: 96.69%
- Post-processing stability Accuracy ([3]; rat liver homogenate, 2,112.00 ng/mL, 4°C for 24 h): 97.47%
- Short-term stability Accuracy ([3]; rat liver homogenate, 2,112.00 ng/mL, 25°C for 6 h): 98.17%
- −80°C for 14 days Accuracy [3, 15]: 93.33%
- Freeze-thaw stability Accuracy [3, 15]: 92.38%
- Post-processing stability Accuracy ([3]; rat plasma, 4.22 ng/mL, 4°C for 24 h): 107.16%
- Short-term stability Accuracy ([3]; rat plasma, 4.22 ng/mL, 25°C for 6 h): 108.92%
- −80°C for 14 days Accuracy ([3]; rat plasma, 4.22 ng/mL): 103.66%
- Freeze-thaw stability Accuracy ([3]; rat plasma, 4.22 ng/mL): 101.64%
- Post-processing stability Accuracy ([3]; rat plasma, 105.60 ng/mL, 4°C for 24 h): 94.98%
- Short-term stability Accuracy ([3]; rat plasma, 105.60 ng/mL, 25°C for 6 h): 95.35%
- −80°C for 14 days Accuracy ([3]; rat plasma, 105.60 ng/mL): 90.18%
- Freeze-thaw stability Accuracy ([3]; rat plasma, 105.60 ng/mL): 92.05%
- Post-processing stability Accuracy ([3]; rat plasma, 1,056.00 ng/mL, 4°C for 24 h): 92.05%
- Short-term stability Accuracy ([3]; rat plasma, 1,056.00 ng/mL, 25°C for 6 h): 92.49%
- −80°C for 14 days Accuracy ([3]; rat plasma, 1,056.00 ng/mL): 90.23%
- Freeze-thaw stability Accuracy ([3]; rat plasma, 1,056.00 ng/mL): 90.04%
- concentration at 2 h ([5]; Sprague-Dawley, heart, n = 5, read-out: highest concentration in heart): 879 ± 450 ng/g
- concentration at 2 h ([5]; Sprague-Dawley, kidney, n = 5, read-out: highest concentration in kidney): 2580 ng/g
- concentration at 1 h ([5]; Sprague-Dawley, liver, at 1 h, n = 5, read-out: highest concentration in liver): 5360 ng/g
- concentration at 2 h ([5]; Sprague-Dawley, lung, n = 5, read-out: highest concentration in lung): 1230 ng/g
- concentration at 6 h ([5]; Sprague-Dawley, pancreas, n = 5, read-out: highest concentration in pancreas): 156 ± 34.2 ng/g
- concentration at 6 h ([5]; Sprague-Dawley, spleen, n = 5, read-out: highest concentration in spleen): 1860 ± 224 ng/g
- detection in testis [5]: no MRTX1133
- detection in organs at 24 h ([5]; liver, kidney, lung, spleen, heart, pancreas (except intestine), 24 h): still detectable
- tissue distribution ([5]; liver, kidney, lung, spleen, heart, pancreas, intestine): widely distributed
Compound: C#Cc1c(F)ccc2cc(O)cc(-c3ncc4c(N5CC6CCC(C5)N6)nc(OC[C@@]56CCCN5C[C@H](F)C6)nc4c3F)c12 [MRTX1133]
- plasma concentration ([4]; 4 h): ~1,000 ng mL^-1
- plasma concentration ([4]; 8 h): ~100 ng/mL
- plasma concentration ([4]; 24 h): approximately 50 ng mL^-1
- Cmax ([4]; at 1 h): approximately 7,000 ng mL^-1
- concentration in liver, spleen, kidney and lung compared with plasma ([5]; 2 h after administration): higher than the concentration of the drug in plasma
- potency (KRAS (G12D)): single digit nanomolar
- selectivity for KRAS (G12D) compared with wild-type KRAS (KRAS (G12D)): more than 1000 fold
